Measurements as given in patent US11766425B2, “Antibiotic combination therapies” (BIOVERSYS AG, priority 2019, dated 2023).
Where two headings read alike, the source gives them in different places. Bridge positions count the residues as written; N and C are the ends. Square brackets hold non-standard residues; d marks the D form. Peptide text beside a SMILES is read from it. Dab = NCC[C@H](N)C(=O)O

Assays:
Assay type in all cases: cell-based, Acinetobacter baumannii
[1] = system: panel of MDR clinical isolates of A. baumannii
Method: (§1) Checkerboards were performed according to the CLSI parameters used for microbroth dilution MIC5. CA-MHB, iron-depleted CA-MHB (ID-CA-MHB) or RPMI supplemented with 10% FCS medium were used as specified and ID-CA-MHB was prepared according to CLSI guidelines. […] FICI is calculated as follows: […]

[2] = system: A. baumannii LAC-4 strain; test: broth microdilution checkerboard MIC/synergy
Method: as §1
The checkerboards were performed in CA-MHB or ID-CA-MHB for cefiderocol.

[3] = system: A. baumannii 401046-18; test: broth microdilution checkerboard MIC/synergy
Method: as §1

[4] = system: A. baumannii 402608-17; test: broth microdilution checkerboard MIC/synergy
Method: as §1

[5] = system: A. baumannii UNT091-1; test: broth microdilution checkerboard MIC/synergy
Method: as §1

[6] = system: A. baumannii 401255-18; test: broth microdilution checkerboard MIC/synergy
Method: as §1

[7] = system: A. baumannii ACC00535; test: broth microdilution checkerboard MIC/synergy; conditions: strain ACC00535; rifabutin/SPR741 in combination
Method: as §1

[8] = system: A. baumannii IHMA863866; test: broth microdilution checkerboard MIC/synergy
Method: as §1

[9] = system: A. baumannii 402292-17; test: broth microdilution checkerboard MIC/synergy
Method: as §1

[10] = system: A. baumannii HUMC1; test: broth microdilution checkerboard MIC/synergy
Method: as §1

[11] = system: A. baumannii UNT087-1; test: broth microdilution checkerboard MIC/synergy
Method: as §1

[12] = system: A. baumannii IHMA919656; test: broth microdilution checkerboard MIC/synergy
Method: as §1

[13] = system: A. baumannii UNT191-1; test: broth microdilution checkerboard MIC/synergy
Method: as §1

[14] = system: A. baumannii UNT239-1; test: broth microdilution checkerboard MIC/synergy
Method: as §1

[15] = system: A. baumannii IHMA690517; test: broth microdilution checkerboard MIC/synergy
Method: as §1

[16] = system: A. baumannii IHMA1013816; test: broth microdilution checkerboard MIC/synergy
Method: as §1

[17] = system: A. baumannii IHMA867231; test: broth microdilution checkerboard MIC/synergy
Method: as §1

[18] = system: A. baumannii UNT238-1; test: broth microdilution checkerboard MIC/synergy
Method: as §1

[19] = second antibiotic in combination with rifabutin, LAC-4, ID-CA-MHB

For `CC(=O)N[C@H](C(=O)N[C@H](CO)C(=O)N[C@H]1CCNC(=O)[C@H]([C@@H](C)O)NC(=O)[C@H](CCN)NC(=O)[C@H](CCN)NC(=O)[C@H](CC(C)C)NC(=O)[C@@H](Cc2ccccc2)NC(=O)[C@H](CCN)NC1=O)[C@@H](C)O` [SPR741] (Ac-T[dS][Dab][Dab][dF]L[Dab][Dab]T; lactam 3-C), the “SPR741 concentration required to achieve synergy with rifabutin, relative to colistin” value ([1]; higher than the one of colistin) was “at least 8 fold”, the “strains on which synergy was observed” value ([1]; rifabutin with SPR741) was 88% and the “MICs combi / in combination” value ([2]; strain LAC-4, rifabutin/SPR741 in combination) was 4 mg/L. For the same compound, the “MICs combi / in combination” value ([3]; strain 401046-18, rifabutin/SPR741 in combination) was 8 mg/L, the “MICs combi / in combination” value ([4]; strain 402608-17, rifabutin/SPR741 in combination) was 16 mg/L and the “MICs combi / in combination” value ([5]; strain UNT091-1, rifabutin/SPR741 in combination) was 2 mg/L. The “MICs combi / in combination” value ([6]; strain 401255-18, rifabutin/SPR741 in combination) was 4 mg/L, the “MICs combi / in combination” value [7] was 4 mg/L and the “MICs combi / in combination” value ([8]; strain IHMA863866, rifabutin/SPR741 in combination) was 16 mg/L. The “MICs combi / in combination” value ([9]; strain 402292-17, rifabutin/SPR741 in combination) was 32 mg/L, the “MICs combi / in combination” value ([10]; strain HUMC1, rifabutin/SPR741 in combination) was 4 mg/L and the “MICs combi / in combination” value ([11]; strain UNT087-1, rifabutin/SPR741 in combination) was 8 mg/L. The “MICs combi / in combination” value ([12]; strain IHMA919656, rifabutin/SPR741 in combination) was 8 mg/L, the “MICs combi / in combination” value ([13]; strain UNT191-1, rifabutin/SPR741 in combination) was 4 mg/L and the “MICs combi / in combination” value ([14]; strain UNT239-1, rifabutin/SPR741 in combination) was 4 mg/L. The “MICs combi / in combination” value ([15]; strain IHMA690517, rifabutin/SPR741 in combination) was 16 mg/L, the “MICs combi / in combination” value ([16]; strain IHMA1013816, rifabutin/SPR741 in combination) was 16 mg/L and the “MICs combi / in combination” value ([17]; strain IHMA867231, rifabutin/SPR741 in combination) was 32 mg/L. The “MICs combi / in combination” value ([18]; strain UNT238-1, rifabutin/SPR741 in combination) was 4 mg/L.

`CC(C)(O/N=C(\C(=O)N[C@@H]1C(=O)N2C(C(=O)[O-])=C(C[N+]3(CCNC(=O)c4ccc(O)c(O)c4Cl)CCCC3)CS[C@H]12)c1csc(N)n1)C(=O)O` [Cefiderocol, cefiderocol] was tested, and the “decrease in the MIC of cefiderocol” value ([1]; in combination with rifabutin, all A. baumannii strains tested (16 MDR isolates)) was ≥ 4 fold, the “strains on which synergy was observed” value ([1]; rifabutin/cefiderocol, panel of strains) was 100% and the MIC ([2]; Acinetobacter baumannii, LAC4STRAIN, read-out: MICs alone) was 1 µg/mL. For the same compound, the FICI [2, 19] was 0.5, the Interpretation [2, 19] was “synergy (synergy (FICI≤0.5))” and the MICs combi ([2]; strain LAC-4, rifabutin/cefiderocol in combination, ID-CA-MHB) was 0.25 mg/L. The MIC ([3]; Acinetobacter baumannii, 40104618, strain 401046-18, antibiotic alone, rifabutin/cefiderocol checkerboard, ID-CA-MHB, read-out: MICs alone) was 128 µg/mL, the MICs combi ([3]; strain 401046-18, rifabutin/cefiderocol in combination, ID-CA-MHB) was 32 mg/L and the MIC ([4]; Acinetobacter baumannii, 40260817, strain 402608-17, antibiotic alone, rifabutin/cefiderocol checkerboard, read-out: MICs alone) was 8 µg/mL. For the same compound, the MICs combi ([4]; strain 402608-17, rifabutin/cefiderocol in combination) was 2 mg/L, the MIC ([5]; Acinetobacter baumannii, UNT0911, strain UNT091-1, antibiotic alone, rifabutin/cefiderocol checkerboard, read-out: MICs alone) was 4 µg/mL and the MICs combi ([5]; strain UNT091-1, rifabutin/cefiderocol in combination) was 1 mg/L. The MIC ([6]; Acinetobacter baumannii, 40125518, strain 401255-18, antibiotic alone, rifabutin/cefiderocol checkerboard, read-out: MICs alone) was 16 µg/mL, the MICs combi ([6]; strain 401255-18, rifabutin/cefiderocol in combination) was 4 mg/L and the MIC ([8]; Acinetobacter baumannii, IHMA863866, read-out: MICs alone) was 4 µg/mL. For the same compound, the MICs combi ([8]; strain IHMA863866, rifabutin/cefiderocol in combination) was 1 mg/L, the MIC ([9]; Acinetobacter baumannii, 40229217, strain 402292-17, antibiotic alone, rifabutin/cefiderocol checkerboard, read-out: MICs alone) was > 32 µg/mL and the MICs combi ([9]; strain 402292-17, rifabutin/cefiderocol in combination) was 8 mg/L. It also gave an MIC ([10]; Acinetobacter baumannii, HUMC1, read-out: MICs alone) of 2 µg/mL, an MICs combi ([10]; strain HUMC1, rifabutin/cefiderocol in combination) of 0.5 mg/L and an MIC ([11]; Acinetobacter baumannii, UNT0871, strain UNT087-1, antibiotic alone, rifabutin/cefiderocol checkerboard, read-out: MICs alone) of 0.5 µg/mL. The MICs combi ([11]; strain UNT087-1, rifabutin/cefiderocol in combination) was 0.125 mg/L, the MIC ([12]; Acinetobacter baumannii, IHMA919656, strain IHMA919656, antibiotic alone, rifabutin/cefiderocol checkerboard, read-out: MICs alone) was 0.125 µg/mL and the MICs combi ([12]; strain IHMA919656, rifabutin/cefiderocol in combination) was 0.03 mg/L. The MIC ([13]; Acinetobacter baumannii, UNT1911, strain UNT191-1, antibiotic alone, rifabutin/cefiderocol checkerboard, ID-CA-MHB, read-out: MICs alone) was 16 µg/mL, the MICs combi ([13]; strain UNT191-1, rifabutin/cefiderocol in combination, ID-CA-MHB) was 4 mg/L and the MIC ([14]; Acinetobacter baumannii, UNT2391, read-out: MICs alone) was 4 µg/mL. It also gave an MICs combi ([14]; strain UNT239-1, rifabutin/cefiderocol in combination, ID-CA-MHB) of 1 mg/L, an MIC ([15]; Acinetobacter baumannii, IHMA690517, strain IHMA690517, antibiotic alone, rifabutin/cefiderocol checkerboard, read-out: MICs alone) of 0.25 µg/mL and an MICs combi ([15]; strain IHMA690517, rifabutin/cefiderocol in combination) of 0.06 mg/L. It also gave an MIC ([16]; Acinetobacter baumannii, IHMA1013816, strain IHMA1013816, antibiotic alone, rifabutin/cefiderocol checkerboard, read-out: MICs alone) of 0.06 µg/mL, an MICs combi ([16]; strain IHMA1013816, rifabutin/cefiderocol in combination) of 0.016 mg/L and an MIC ([17]; Acinetobacter baumannii, IHMA867231, strain IHMA867231, antibiotic alone, rifabutin/cefiderocol checkerboard, read-out: MICs alone) of 1 µg/mL. For the same compound, the MICs combi ([17]; strain IHMA867231, rifabutin/cefiderocol in combination) was 0.25 mg/L, the MIC ([18]; Acinetobacter baumannii, UNT2381, strain UNT238-1, antibiotic alone, rifabutin/cefiderocol checkerboard, ID-CA-MHB, read-out: MICs alone) was 4 µg/mL and the MICs combi ([18]; strain UNT238-1, rifabutin/cefiderocol in combination, ID-CA-MHB) was 1 mg/L.
